This note sets out measurements from patent publication US20220232831A1, “NOVEL NON-CODING HETEROCYCLIC AMINO ACIDS (NCHAA) AND THEIR USE AS HERBICIDES” (Fortephest Ltd., priority 2019, published 2022).

Where a SMILES comes first, the peptide text is derived from it. [ ]: non-standard residue; d: D form. ξ: configuration not given here. ξ3Thi = NC(Cc1ccsc1)C(=O)O

Assay [1] has as its system Seeds of Lettuce R. (Super-Jericho). Kind of assay: Filter paper bioassay with lettuce seeds (germination and early plant development). The conditions noted are these: lettuce seeds on filter paper; 1, 0.1, 0.01, 0.001 mM; radicle and shoots assessed after 6 days. The class given is in vivo. The protocol: Seeds of Lettuce R. (Super-Jericho, non-sterilized) were obtained from Ben Shahar Moshe Ltd., 99% purity.
Filter Paper Bioassays with Lettuce Seeds:
The protocol is following Bertin et al. 2009 and Movellan et al. 2014 with specified modifications as described below.
Seeds were placed on Whatman no. 1 filter paper (Whatman, Middlesex, U.K.) in Petri dishes (10 seeds per plate) supplemented with 2.0 ml of water (Control) or with a solution comprising 1 mM, 0.1 mM, 0.01 mM and 0.001 mM of test material. Petri dishes with seeds were placed in a tray at an angle of 45°. The trays were kept in dark for 48 hours and then transferred to the growth chamber (22° C., 0.045 mmol×m−2×s−1 photosynthetic photon flux density; 6/18 dark/light cycle) for additional 4 days. Each experiment was performed at least in two repeats. The development of radicle and shoots of experimental and control plants were visually assessed 6 days after the beginning of the test to determine Minimal Effective Concentration (MEC) of test material. In the context of the invention, MEC is defined as the lowest concentration level of a test material that caused deviation (absence of germination or malformation of radicle and shoots) from the plant's development in the Control group.

Assay [2] has as its system Romaine lettuce (Lactuca sativa L.) plants. Kind of assay: Post-emergency herbicidal activity on Romaine lettuce plants. The class given is in vivo. The conditions noted are these: Romaine lettuce at stage 2 to 3 leaves; compound in 0.1% Silwet, up to 0.5%; visual evaluation vs control plants. How it is done: The tests were performed on Romaine lettuce (Lactuca sativa L.) plants at the stage 2 to 3 leaves. The plants were grown on 300 well trays packed with soil, well dimensions 2×2×5 cm. Each compound was dissolved in 0.1% water solution of agronomically acceptable surfactant Silwet to final concentrations ranging from 0.0% (Control) to 0.5%. Two weeks after the treatment the herbicidal effects of the respective test material were visually evaluated by a comparison with the control plants. In addition, the aboveground part of the plant was neatly cut and weighed (wet weight). Each test was performed on 20 to 40 plants. The degree of growth inhibition and damage was evaluated according to the parameters in Table 2. Plant development at 7, 14, and 21 DAA (days after application) were evaluated on a scale of 0 to 100, in which score 0 represents dead plants and score 100 represents healthy plants according to plant vigor, height, and leaf color. Each test included 20 to 40 plants.

With `NC(Cc1cccs1)C(=O)O` (stereo not shown) [Code 501], the “Minimal Effective Concentration (MEC) as activity score, seeds germination & early plants development” value (from here on “Minimal Effective Concentration (MEC)”) in assay [1] was “Maximal (0.01 mM and less)”. In assay [2], the “post-emergency herbicidal activity (Activity Index: plant's development vs Control)” value is recorded as “Strong (From 25 to 50)”.
For the molecule `NC(Cc1ccsc1)C(=O)O` (stereo not shown) [Code 502], the “Minimal Effective Concentration (MEC)” value in assay [1] was “Maximal (0.01 mM and less)”. In addition, the “post-emergency herbicidal activity (Activity Index: plant's development vs Control)” value in assay [2] is “Very Strong (From 15 to 25)”.
Turning to `NC(CNS(=O)(=O)c1ccsc1)C(=O)O` (stereo not shown) [Code 504], the “Minimal Effective Concentration (MEC)” value in assay [1] was “Weak (More than 1 mM)”. In assay [2], the “post-emergency herbicidal activity (Activity Index: plant's development vs Control)” value is given as “Weak (More than 75)”.
With `NC(CNS(=O)(=O)c1cscc1F)C(=O)O` (stereo not shown) [Code 506], in assay [1], the “Minimal Effective Concentration (MEC)” value was “Weak (More than 1 mM)”. Moreover, the “post-emergency herbicidal activity (Activity Index: plant's development vs Control)” value in assay [2] is given as “Weak (More than 75)”.
On the same counts, the results for `COC(=O)C(N)CNS(=O)(=O)c1ccsc1` (stereo not shown) [Code 507] are “Weak (More than 1 mM)” and “Weak (More than 75)”.
As for `N#Cc1cc(C[C@H](N)C(=O)O)cs1` [Code 509], the “Minimal Effective Concentration (MEC)” value in assay [1] is on record as “Strong (0.1 mM)”. In assay [2], the “post-emergency herbicidal activity (Activity Index: plant's development vs Control)” value is given as “Maximal (Less than 15)”.
On to `NC(Cc1cc(C(F)(F)F)cs1)C(=O)O` (stereo not shown) [Code 510], for which the “post-emergency herbicidal activity (Activity Index: plant's development vs Control)” value in assay [2] was “Strong (From 25 to 50)”.
For the molecule `NC(CC(=O)O)c1cscc1Br` (stereo not shown) [Code 511], in assay [1], the “Minimal Effective Concentration (MEC)” value is listed as “Weak (More than 1 mM)”. Besides, in assay [2], the “post-emergency herbicidal activity (Activity Index: plant's development vs Control)” value is “Weak (More than 75)”.
As for `Cc1sc(C)c(CC(N)C(=O)O)c1C` (stereo not shown) [Code 512], the “Minimal Effective Concentration (MEC)” value in assay [1] is given as “Weak (More than 1 mM)”. Besides, the “post-emergency herbicidal activity (Activity Index: plant's development vs Control)” value in assay [2] is “Weak (More than 75)”.
For the molecule `CCCCOC(=O)C(N)Cc1ccsc1` (stereo not shown) [Code 513], in assay [1], the “Minimal Effective Concentration (MEC)” value is listed as “Strong (0.1 mM)”. In assay [2], the “post-emergency herbicidal activity (Activity Index: plant's development vs Control)” value is “Very Strong (From 15 to 25)”.
For the molecule `NC(CNS(=O)(=O)c1cc(Cl)sc1Cl)C(=O)O` (stereo not shown) [Code 514], the “Minimal Effective Concentration (MEC)” value in assay [1] was “Weak (More than 1 mM)”. Further, the “post-emergency herbicidal activity (Activity Index: plant's development vs Control)” value in assay [2] is recorded as “Weak (More than 75)”.
The corresponding values for `Cc1c(Cl)sc(Cl)c1S(=O)(=O)NCC(N)C(=O)O` (stereo not shown) [Code 515] are “Weak (More than 1 mM)” and “Weak (More than 75)”.
In the case of `NC(Cc1ccsc1Cl)C(=O)O` (stereo not shown) [Code 516], the “Minimal Effective Concentration (MEC)” value in assay [1] was “Maximal (0.01 mM and less)”. In assay [2], the “post-emergency herbicidal activity (Activity Index: plant's development vs Control)” value was “Maximal (Less than 15)”.
`NC(Cc1csc(Cl)c1)C(=O)O` (stereo not shown) [Code 518]: the “post-emergency herbicidal activity (Activity Index: plant's development vs Control)” value in assay [2] is recorded as “Strong (From 25 to 50)”.
With `NC(CC1=NCSC1)C(=O)O` (stereo not shown) [Code 519], in assay [1], the “Minimal Effective Concentration (MEC)” value is “Maximal (0.01 mM and less)”. Moreover, in assay [2], the “post-emergency herbicidal activity (Activity Index: plant's development vs Control)” value was “Moderate (From 50 to 75)”.
Consider `NC(Cc1cncs1)C(=O)O` (stereo not shown) [Code 520], for which the “Minimal Effective Concentration (MEC)” value in assay [1] is “Strong (0.1 mM)”. In addition, the “post-emergency herbicidal activity (Activity Index: plant's development vs Control)” value in assay [2] is reported as “Weak (More than 75)”.
On the same counts, the results for `NC(CNS(=O)(=O)c1c(Cl)sc(Cl)c1C(F)(F)F)C(=O)O` (stereo not shown) [Code 521] are “Weak (More than 1 mM)” and “Weak (More than 75)”.
The corresponding values for `Nc1nc(CC(N)C(=O)O)cs1` (stereo not shown) [Code 522] are “Weak (More than 1 mM)” and “Weak (More than 75)”.
On the same counts, the results for `COC(=O)C(N)CNS(=O)(=O)c1cc(Cl)sc1Cl` (stereo not shown) [Code 523] are “Weak (More than 1 mM)” and “Weak (More than 75)”.
Take `CCOC(=O)C(N)CNS(=O)(=O)c1cc(Cl)sc1Cl` (stereo not shown) [Code 524]: the “Minimal Effective Concentration (MEC)” value in assay [1] is listed as “Weak (More than 1 mM)”. Further, the “post-emergency herbicidal activity (Activity Index: plant's development vs Control)” value in assay [2] is given as “Weak (More than 75)”.
On the same counts, the results for `CCCOCCOC(=O)C(N)CNS(=O)(=O)c1cc(Cl)sc1Cl` (stereo not shown) [Code 525] are “Weak (More than 1 mM)” and “Weak (More than 75)”.
The corresponding values for `CCOC(=O)C(CN(C(=O)O)S(=O)(=O)c1cc(Cl)sc1Cl)NC(=O)O` (stereo not shown) [Code 526] are “Weak (More than 1 mM)” and “Weak (More than 75)”.
The corresponding values for `NC(Cc1nc(Cl)sc1Cl)C(=O)O` (stereo not shown) [Code 527] are “Moderate (1 mM)” and “Maximal (Less than 15)”.
Regarding `NC(Cc1ncsc1Cl)C(=O)O` (stereo not shown) [Code 528], the “Minimal Effective Concentration (MEC)” value in assay [1] is reported as “Moderate (1 mM)”. In addition, the “post-emergency herbicidal activity (Activity Index: plant's development vs Control)” value in assay [2] is given as “Weak (More than 75)”.
For `NC(Cc1cnsn1)C(=O)O` (stereo not shown) [Code 529], the “Minimal Effective Concentration (MEC)” value in assay [1] is on record as “Strong (0.1 mM)”. The “post-emergency herbicidal activity (Activity Index: plant's development vs Control)” value in assay [2] is reported as “Moderate (From 50 to 75)”.
With `NC(Cc1ncns1)C(=O)O` (stereo not shown) [Code 532], the “Minimal Effective Concentration (MEC)” value in assay [1] was “Strong (0.1 mM)”. The “post-emergency herbicidal activity (Activity Index: plant's development vs Control)” value in assay [2] is recorded as “Moderate (From 50 to 75)”.
On the same counts, the results for `NC(Cc1ccoc1)C(=O)O` (stereo not shown) [Code 534] are “Moderate (1 mM)” and “Strong (From 25 to 50)”.
For `NC(Cc1ccsc1)C(=O)NCC(=O)O` (stereo not shown) [Code 548] (H-[ξ3Thi]-Gly-OH), the “post-emergency herbicidal activity (Activity Index: plant's development vs Control)” value in assay [2] is “Strong (From 25 to 50)”.
Same read-out and setting: the result for `CCCC(=O)NC(Cc1nc(Cl)sc1Cl)C(=O)OCC` (stereo not shown) [Code 550] reads “Maximal (Less than 15)”; that for `CCCCOCCOC(=O)C(Cc1nc(Cl)sc1Cl)NC(C)=O` (stereo not shown) [Code 551], “Maximal (Less than 15)”; that for `CCCCOC(=O)C(Cc1nc(Cl)sc1Cl)NC(C)=O` (stereo not shown) [Code 554], “Maximal (Less than 15)”.
On the same count and under the same terms, in the case of `Cc1sc(Cl)cc1CC(N)C(=O)O` (stereo not shown) [Code 559] it was “Moderate (From 50 to 75)”.
Same read-out and setting: in the case of `NC(Cc1ccsc1Br)C(=O)O` (stereo not shown) [Code 560] it was “Strong (From 25 to 50)”; in that of `COC(=O)C(N)Cc1cc(Cl)sc1Cl` (stereo not shown) [Code 568], “Maximal (Less than 15)”.
For `Cl.NC(Cc1n[nH]c2ccccc12)C(=O)O` (stereo not shown) [Code 599], in assay [1], the “Minimal Effective Concentration (MEC)” value is “Maximal (0.01 mM and less)”.
Consider `Cn1cnnc1CC(N)C(=O)O` (stereo not shown) [Code 717], for which the “post-emergency herbicidal activity (Activity Index: plant's development vs Control)” value in assay [2] is recorded as “Weak (More than 75)”.
Same read-out and setting: the result for `Cl.Cl.Cn1ncnc1CC(N)C(=O)O` (stereo not shown) [Code 770] reads “Weak (More than 75)”; that for `Cl.Cn1cc(CC(N)C(=O)O)nn1` (stereo not shown) [Code 771], “Weak (More than 75)”; that for `Cl.Cn1nnc(CC(N)C(=O)O)n1` (stereo not shown) [Code 772], “Moderate (From 50 to 75)”.
Same read-out and setting: in the case of `Cc1nnc(CC(N)C(=O)O)n1C.Cl` (stereo not shown) [Code 773] it was “Weak (More than 75)”; in that of `N[C@@H](Cc1cn[nH]c1C(F)(F)F)C(=O)O` [Code 774], “Very Strong (From 15 to 25)”.
As to `CCCCOCCOCCOC(=O)C(N)Cc1cn[nH]n1` (stereo not shown) [Code 775], the “post-emergency herbicidal activity (Activity Index: plant's development vs Control)” value in assay [2] is “Maximal (Less than 15)”.
